The record followed here is ChEMBL document CHEMBL3045315, “Effect of ring A and ring B substitution on the cytotoxic potential of pyrazole tethered chalcones” (Med Chem Res, 2012).

Usually IC50 stands for the concentration at which inhibition is half-maximal. A low value points to inhibition by little substance.

What all share (format): functional, cell-based
One assay has as its system IMR-32. In words: Cytotoxicity against Homo sapiens (human) IMR32 cells after 48 hr by SRB assay. Particulars: IMR-32, 48 h.
The next assay relates to HEp-2. In words: Cytotoxicity against Homo sapiens (human) Hep2 cells after 48 hr by SRB assay. Particulars: HEp-2, 48 h. Background: In SRB staining, fixed cells bind dye roughly in proportion to their protein.
The next assay relates to PC-3. The assay is described as follows: Cytotoxicity against Homo sapiens (human) PC3 cells after 48 hr by SRB assay. Particulars: PC-3, 48 h.
The test system of a further assay is OVCAR. In words: Cytotoxicity against Homo sapiens (human) OVCAR cells after 48 hr by SRB assay.

As to `CC(=O)N1N=C(c2ccco2)CC1c1ccccc1[N+](=O)[O-]` (stereo unspecified), the IC50 in the assay with IMR-32 was 27.9 µM; in the assay with HEp-2 it was 47.9 µM; with PC-3, 19 µM; in the assay on OVCAR, 28.3 µM.

In the case of `COc1ccc(C2CC(c3ccco3)=NN2C(C)=O)cc1OC` (stereo unspecified), the IC50 in the assay on IMR-32 was found to be 11.2 µM; in the assay with HEp-2, 9.99 µM; with PC-3, 12.3 µM; with OVCAR, 31.2 µM.

Take `COc1ccc(C2CC(c3ccc4ccccc4c3)=NN2C(C)=O)cc1O` (stereo unspecified): the IC50 in the assay on IMR-32 amounted to 1.49 µM; in the assay with HEp-2, 1.02 µM; in the assay with PC-3, 2.04 µM; with OVCAR it was 2.16 µM.

As for `COc1ccc(C2CC(c3cccc4ccccc34)=NN2C(C)=O)c(OC)c1OC` (stereo unspecified), the IC50 with IMR-32 was determined as 1.79 µM; with HEp-2, 1.29 µM; in the assay on PC-3, 1.22 µM; in the assay on OVCAR, 1.98 µM.

For `COc1ccc(C2CC(c3ccccc3)=NN2C(C)=O)cc1` (stereo unspecified), the IC50 in the assay with IMR-32 stood at 9.73 µM; in the assay with HEp-2, 10.7 µM; in the assay with PC-3 it was 7.67 µM; with OVCAR, 13.8 µM.

As to `CC(=O)N1N=C(c2ccco2)CC1c1ccc(Br)cc1` (stereo unspecified), the IC50 in the assay on IMR-32 is 47.8 µM; in the assay on HEp-2 it was 51.2 µM; with PC-3, 42.1 µM; in the assay with OVCAR, 18.9 µM.

On to `COc1ccc(C2CC(c3cccc4ccccc34)=NN2C(C)=O)cc1` (stereo unspecified), for which the IC50 in the assay on IMR-32 came to 4.99 µM; in the assay on HEp-2, 3.73 µM; with PC-3, 4.93 µM; with OVCAR, 6.71 µM.

Consider `CC(=O)N1N=C(c2ccccc2)CC1c1ccccc1` (stereo unspecified), for which the IC50 with IMR-32 is 11.9 µM; in the assay on HEp-2, 11.8 µM; in the assay on PC-3 it was 8.69 µM; with OVCAR, 23.5 µM.

For `CC(=O)N1N=C(c2cccc3ccccc23)CC1c1cccc(Br)c1` (stereo unspecified), the IC50 in the assay with IMR-32 was determined as 11.9 µM; in the assay with HEp-2, 9.88 µM; in the assay on PC-3 it was 12 µM; with OVCAR, 12.3 µM.

With `CC(=O)N1N=C(c2ccc3ccccc3c2)CC1c1ccc2ccccc2c1` (stereo unspecified), the IC50 with IMR-32 is 0.19 µM; in the assay on HEp-2, 0.17 µM; with PC-3 it was 0.2 µM; with OVCAR it was 0.23 µM.

Take `COc1cc(C2CC(c3ccccc3)=NN2C(C)=O)ccc1O` (stereo unspecified): the IC50 in the assay with IMR-32 was determined as 5.78 µM; with HEp-2, 4.99 µM; in the assay with PC-3 it was 7.56 µM; with OVCAR it was 6.63 µM.

As to `CC(=O)N1N=C(c2ccco2)CC1c1ccc2c(c1)OCO2` (stereo unspecified), the half-maximal inhibitory concentration (IC50) in the assay with IMR-32 is 12.3 µM; in the assay with HEp-2, 20 µM; in the assay with PC-3 it was 16.7 µM; in the assay with OVCAR, 12.3 µM.

With `COc1ccc(C2CC(c3ccccc3)=NN2C(C)=O)cc1OC` (stereo unspecified), the IC50 was 4.49 µM in the assay with IMR-32, 7.85 µM in the assay on HEp-2, 6.78 µM with PC-3 and 5.56 µM in the assay on OVCAR.

As to `COc1cc(C2CC(c3ccc(Br)cc3)=NN2C(C)=O)cc(OC)c1OC` (stereo unspecified), the IC50 worked out at 3.13 µM in the assay with IMR-32, 4.53 µM with HEp-2, 3.45 µM with PC-3 and 4.78 µM in the assay with OVCAR.

For the compound `COc1cc(C2CC(c3ccc4ccccc4c3)=NN2C(C)=O)cc(OC)c1OC` (stereo unspecified), the IC50 worked out at 0.67 µM in the assay with IMR-32, 0.53 µM with HEp-2, 0.57 µM in the assay with PC-3 and 0.64 µM in the assay with OVCAR.

Consider `COc1cc(C2CC(c3cccc4ccccc34)=NN2C(C)=O)cc(OC)c1OC` (stereo unspecified), for which the IC50 in the assay on IMR-32 was found to be 1.54 µM; in the assay with HEp-2 it was 1.01 µM; in the assay with PC-3, 1.09 µM; in the assay with OVCAR it was 1.77 µM.

For the compound `CC(=O)N1N=C(c2ccco2)CC1c1ccccc1` (stereo unspecified), the IC50 in the assay on IMR-32 worked out at 29.1 µM; with HEp-2, 32.1 µM; with PC-3 it was 21.3 µM; in the assay on OVCAR it was 31.3 µM.

As for `CC(=O)N1N=C(c2cccc3ccccc23)CC1c1ccco1` (stereo unspecified), the IC50 in the assay on IMR-32 turned out to be 8 µM; with HEp-2 it was 17 µM; in the assay with PC-3, 18 µM; in the assay with OVCAR it was 13 µM.

For `CC(=O)N1N=C(c2cccc([N+](=O)[O-])c2)CC1c1ccc2c(c1)OCO2` (stereo unspecified), the IC50 in the assay on IMR-32 worked out at 7.89 µM; with HEp-2, 7.65 µM; in the assay with PC-3, 8.21 µM; in the assay with OVCAR it was 9.87 µM.

Take `CC(=O)N1N=C(c2cccc([N+](=O)[O-])c2)CC1c1cccc(Cl)c1Cl` (stereo unspecified): the IC50 amounted to 25.3 µM in the assay with IMR-32, 27.6 µM in the assay with HEp-2, 18.2 µM in the assay with PC-3 and 19.7 µM in the assay with OVCAR.

For `COc1ccc(C2CC(c3ccc4ccccc4c3)=NN2C(C)=O)cc1OC` (stereo unspecified), the IC50 was 1.59 µM in the assay with IMR-32, 1.01 µM in the assay on HEp-2, 1.98 µM in the assay on PC-3 and 2.45 µM in the assay with OVCAR.

For `CC(=O)N1N=C(c2cccc3ccccc23)CC1c1ccccc1[N+](=O)[O-]` (stereo unspecified), the concentration for half-maximal inhibition (IC50) with IMR-32 turned out to be 3.98 µM; in the assay on HEp-2, 3.96 µM; in the assay with PC-3, 3.54 µM; in the assay with OVCAR, 4.32 µM.

Regarding `CC(=O)N1N=C(c2ccc3ccccc3c2)CC1c1cccc(Br)c1` (stereo unspecified), the IC50 came to 9.87 µM in the assay on IMR-32, 8.78 µM with HEp-2, 10.9 µM with PC-3 and 10.8 µM with OVCAR.

Consider `COc1ccc(C2CC(c3cccc4ccccc34)=NN2C(C)=O)cc1OC` (stereo unspecified), for which the IC50 with IMR-32 was determined as 1.68 µM; in the assay with HEp-2 it was 1.03 µM; with PC-3, 2.01 µM; in the assay on OVCAR, 2.69 µM.

Regarding `CC(=O)N1N=C(c2ccc3ccccc3c2)CC1c1ccccc1[N+](=O)[O-]` (stereo unspecified), the IC50 with IMR-32 came to 3.36 µM; in the assay on HEp-2, 3.63 µM; with PC-3 it was 3.01 µM; in the assay with OVCAR, 3.48 µM.

Take `COc1cc(C2CC(c3cccc4ccccc34)=NN2C(C)=O)ccc1O` (stereo unspecified): the IC50 in the assay on IMR-32 was found to be 1.78 µM; with HEp-2, 1.13 µM; in the assay with PC-3, 2.13 µM; in the assay on OVCAR it was 2.73 µM.

For `COc1cc(C2CC(c3ccccc3)=NN2C(C)=O)cc(OC)c1OC` (stereo unspecified), the IC50 amounted to 3.38 µM with IMR-32, 3.56 µM with HEp-2, 3.39 µM in the assay on PC-3 and 4.64 µM in the assay on OVCAR.

For the compound `CC(=O)N1N=C(c2ccco2)CC1c1ccc(Cl)cc1` (stereo unspecified), the IC50 came to 38.9 µM in the assay with IMR-32, 57.4 µM in the assay with HEp-2, 39 µM in the assay on PC-3 and 31.3 µM with OVCAR.

In the case of `COc1ccc(C2CC(c3ccc(Br)cc3)=NN2C(C)=O)cc1OC` (stereo unspecified), the IC50 was 5.54 µM in the assay on IMR-32, 8.87 µM in the assay on HEp-2, 7.76 µM with PC-3 and 5.59 µM in the assay with OVCAR.

With `CC(=O)N1N=C(c2ccc3ccccc3c2)CC1c1ccco1` (stereo unspecified), the IC50 in the assay on IMR-32 is 11 µM; in the assay on HEp-2, 19 µM; in the assay with PC-3, 23 µM; in the assay with OVCAR, 18 µM.

In the case of `COc1cc(OC)c(C2CC(c3ccco3)=NN2C(C)=O)cc1OC` (stereo unspecified), the IC50 in the assay on IMR-32 amounted to 7.76 µM; in the assay with HEp-2 it was 6.69 µM; in the assay on PC-3 it was 8.98 µM; in the assay on OVCAR it was 6.76 µM.

For the compound `CC(=O)N1CC(c2ccc3c(c2)OCO3)C(c2ccc3ccccc3c2)=N1` (stereo unspecified), the IC50 in the assay with IMR-32 came to 1.56 µM; with HEp-2 it was 1.01 µM; in the assay on PC-3 it was 1.97 µM; in the assay with OVCAR, 3.45 µM.

Regarding `CC(=O)N1N=C(c2cccc3ccccc23)CC1c1cccc([N+](=O)[O-])c1` (stereo unspecified), the IC50 is 3.96 µM in the assay with IMR-32, 4.08 µM in the assay with HEp-2, 3.13 µM in the assay with PC-3 and 3.65 µM in the assay with OVCAR.

Consider `COc1ccc(OC)c(C2CC(c3ccc4ccccc4c3)=NN2C(C)=O)c1` (stereo unspecified), for which the IC50 in the assay on IMR-32 is 1.32 µM; with HEp-2, 1.09 µM; in the assay with PC-3, 1.66 µM; in the assay on OVCAR it was 2.33 µM.
